Results published in patent US20080221200A1, “Combination of Organic Compounds” (priority 2005, published 2008).

Columns and labels:
[1] = system: mice (NOD); assay: Effect on insulitis in NOD mice dosed intraperitoneally; format: in vivo; settings: intraperitoneal, from 4 weeks of age, 3 times a week for four weeks, assessed at 14 weeks
Description: To investigate the effect of Vildagliptin or the combination “Vildagliptin+compound A” on insulitis or type I diabetes mellitus, mice (NOD) with a genetic predisposition to develop IDDM (insulin dependent diabetes mellitus) are treated with Vildagliptin or the combination “Vildagliptin+compound A”. The animals are dosed intraperitoneally from 4 weeks of age, 3 times a week for four weeks. Insulitis is assessed at 14 weeks and scored in a table. The mice are scored according to the method of Beales et al. (European Journal of Pharmacology 357 (1998) 221-225. 3 or more (DMSO and PBS) represents severe grade insulitis and 1-3 represents little infiltration (a score of 1 would represent low grade peri-insulitis).

[2] = system: non-obese diabetic (NOD) mice; assay: Incidence of insulitis in NOD mice, supplementation in drinking water during pregnancy and lactation; format: in vivo; settings: maternal drinking water through pregnancy and lactation, examined at 12 weeks of age
From the text: F. Effect of Vildagliptin and the combination of “Vildagliptin+compound A” on incidence of Insulitis Diabetes-prone non-obese diabetic (NOD) mice in which females develop a 90% rate of autoimmune diabetes by the age of 25 weeks is studied in order to determine the effect of Vildagliptin and the combination of “Vildagliptin+compound A” on insulitis onset and development. Insulitis initiates at 3-5 weeks of age in NOD mice, as leukocytes begin to infiltrate around ducts and venules in both female and male mice. These infiltrates progress toward the islets, which become surrounded by concentric layers of pen-insular lymphocytes (non-destructive peri-insulitis). Destructive intra-islet insulitis then occurs, leading to extensive P cell destruction. All NOD mice display peri-insulitis, whereas intra-insulitis and overt Type 1 diabetes is restricted to about 70-80% of females and about 10-15% of males in the NOD mouse colony used in this instance. […] Mice which are examined and found to have evidence of insulitis, are then further scored as peri-islet (slight), less than 50% area of islet (medium) or more than 50% islet area (heavy), as indicative of the stage and/or severity of insulitis.

N#C[C@@H]1CCCN1C(=O)CNC12CC3CC(CC(O)(C3)C1)C2 [vildagliptin, (S)-1-[(3-hydroxy-1-adamantyl)amino]acetyl-2-cyano-pyrrolidine]
insulitis score [1]: unexpected good results in reducing insulitis | insulitis (histological evidence within pancreatic islets) [2]: unexpected good results in reducing insulitis
